The target in one data set is T1, CYP3A4 (Homo sapiens, UniProt P08684).
T1 construct: from tissue; host or cells: human liver microsomes
The data set is described as follows: CYP profiling: human liver microsomes with CYP3A4 inhibitor ketoconazole. Type of data set: in vitro ADME. Further details: % Compound Metabolized at 30 min, CYP3A4 Inhibitor: concentration or dose not given beside the values. Conditions: HLMs; for % Inhibition Relative to Negative Control, 3A4: 30 min. On the procedure:
In order to investigate the contributions of CYP1A2 and CYP3A4 to the metabolism of the compounds of the present disclosure, human liver microsomes were incubated with the test compounds for 30 minutes in the presence of selective chemical inhibitors furafylline (1A2) and ketoconazole (3A4).

Data set [1] in a line: In vivo pharmacokinetic studies in rats. Also noted: species or system SD rats. Conditions: rats; for AUC / AUC(0-inf) / Cmax at 1 day / MRT inf at 1 day / MRT last at 1 day / half-life at 1 day / AUC(0-t) / Tmax at 1 day / Cmax at 5 day / MRT last at 5 day / Tmax at 5 day / MRT inf at 5 days / half-life at 5 days: rat, plasma, po, 10 mg/kg; for AUC(0-inf) / Cmax at 1 day / MRT inf at 1 day / MRT last at 1 day / half-life at 1 day / AUC(0-t) / Tmax at 1 day / Cmax at 5 day / MRT last at 5 day / Tmax at 5 day / AUCinf / AUClast / Cmax / MRTinf / MRTlast / T1/2 / Tmax / MRT inf at 5 days / half-life at 5 days: repeat 10 mg/kg PO QD; for AUC(0-t): read-out: AUClast; for Tmax at 1 day: read-out: Tmax; for behaviour of exposure after 5 days of repeat dosing (in words): 10 mg/kg PO QD for 5 days. On the procedure: This example describes pharmacokinetic (PK) studies of ARI-164, ARI-165, ARI-186, ARI-224, and ARI-226 in mice and rats. In the present studies, the test compounds were given to groups of mice and/or rats (N=3 in each group), intravenously (IV) at 2 mg/kg or orally (PO) at 10, 30, or 40 mg/kg. ARI-186, ARI-224 and ARI-226 were given orally to rats QD for 5 days at 10 mg/kg to assess whether decreased susceptibility to CYP1A1/1A2 metabolism would lead to increased accumulation. IV doses were formulated in DMSO, while PO doses were formulated in a 50/50 mixture of PEG400 and Tween 80 (single dose mouse and rat studies for ARI-164, ARI-165, ARI-186, ARI-224, ARI-226) or PEG400/Kolliphor HS15/Oleic Acid 45/45/10 (ARI-164 repeat dose rat study). Blood samples were collected at pre-dose and over a period of 24 hours post-dose. Plasma concentrations of the test compounds were determined by HPLC.

Setting [2] is: Sprague-Dawley (SD), Day 1, Mean of 3 animals.
Setting [3] is: Sprague-Dawley, Day 1, individual animal.
The mark [4] stands for this setting: Sprague-Dawley, Day 5, individual animal.

Several values for one entry are separate records, joined by “and”; a condition that tells them apart may be missing. Identical values can stand only once. Like-named read-outs stand apart in the source and are kept apart here.

T1 sequence (P08684 whole entry): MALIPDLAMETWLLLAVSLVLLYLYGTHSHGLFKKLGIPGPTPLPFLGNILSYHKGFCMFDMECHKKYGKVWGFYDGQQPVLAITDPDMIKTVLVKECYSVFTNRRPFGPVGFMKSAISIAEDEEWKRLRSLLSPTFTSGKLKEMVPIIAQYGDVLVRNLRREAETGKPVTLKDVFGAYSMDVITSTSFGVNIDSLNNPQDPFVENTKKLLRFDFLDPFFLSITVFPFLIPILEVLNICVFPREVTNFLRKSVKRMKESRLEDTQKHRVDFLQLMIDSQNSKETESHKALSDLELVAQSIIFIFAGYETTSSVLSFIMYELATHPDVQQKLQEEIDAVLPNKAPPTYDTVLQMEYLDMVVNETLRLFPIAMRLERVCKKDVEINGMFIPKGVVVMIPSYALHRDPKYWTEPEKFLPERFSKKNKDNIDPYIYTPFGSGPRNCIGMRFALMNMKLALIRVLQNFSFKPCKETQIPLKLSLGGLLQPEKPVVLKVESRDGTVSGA

`CC[C@H](N)c1csc(C(=O)c2c[nH]c3cc(F)ccc23)n1` [ARI-186, (S)-(4-(1-aminopropyl)thiazol-2-yl)(6-fluoro-1H-indol-3-yl)methanone]: on CYP3A4, the “% Compound Metabolized at 30 min, CYP3A4 Inhibitor” value was 12% and the “% Inhibition Relative to Negative Control, 3A4” value turned out to be 8%. For the same molecule, the exposure (AUC) in data set [1] (SD, repeat oral dosing 10 mg/kg QD, read-out: AUC on day 1) came out at 5940 ng·h/mL. The AUC in data set [1] (SD, repeat oral dosing 10 mg/kg QD, read-out: AUC on day 5) stood at 29100 ng·h/mL. Besides, in data set [1] (setting [2]), the total exposure AUC(0-inf) came to 6480 ng·h/mL, the highest level (Cmax at 1 day) was 399 ng/mL, the MRT inf at 1 day turned out to be 10.1 h and the MRT last at 1 day was 8.06 h. In data set [1] (setting [2]), the half-life at 1 day was 6.04 h, the AUC(0-t) was found to be 5940 ng·h/mL and the Tmax at 1 day came out at 6.67 h. In addition, the AUC(0-t) in data set [1] (Sprague-Dawley (SD), Day 5, individual animal) turned out to be 33600 ng·h/mL. In data set [1] (setting [3]), the AUC(0-inf) was found to be 6920 ng·h/mL, the Cmax at 1 day is 397 ng/mL, the MRT inf at 1 day was 10.5 h and the MRT last at 1 day worked out at 8.14 h. In data set [1] (setting [3]), the half-life at 1 day is 6.44 h, the AUC(0-t) was 6260 ng·h/mL and the Tmax at 1 day is 8 h. Moreover, in data set [1] (Sprague-Dawley, Day 5, Mean), the peak level (Cmax at 5 day) was 1580 ng/mL, the MRT last at 5 day amounted to 11.5 h, the Tmax at 5 day worked out at 4.67 h and the AUC(0-t) came to 29100 ng·h/mL. Further, in data set [1] (setting [4]), the peak concentration (Cmax) at 5 day worked out at 1610 ng/mL and the MRT last at 5 day turned out to be 11.6 h. Moreover, the “behaviour of exposure after 5 days of repeat dosing (in words)” value in data set [1] is recorded as “accumulation towards steady state”. Further, in data set [1] (Day 1, individual animal), the AUCinf is 6000 ng·h/mL and 6510 ng·h/mL; the AUClast was 5400 ng·h/mL and 6150 ng·h/mL; the Cmax is 359 ng/mL and 441 ng/mL; the MRTinf was 10.9 h and 8.93 h. In data set [1] (Day 1, individual animal), the MRTlast is 8.40 h and 7.63 h; the T1/2 is 6.45 h and 5.22 h; the Tmax came out at 4 h. In addition, in data set [1] (Day 5, individual animal), the AUClast worked out at 24600 ng·h/mL; the Cmax was 1310 ng/mL and 1810 ng/mL; the MRTlast was 11.4 h; the Tmax is 4 h. For the same molecule, in data set [1] (repeat oral dosing 10 mg/kg QD), the “accumulation (AUC day 5 vs day 1)” value is 4.9 ×.

As to `CC[C@@H](N)c1csc(C(=O)c2c[nH]c3ccc(F)cc23)n1` [ARI-219], at CYP3A4, the “% Compound Metabolized at 30 min, CYP3A4 Inhibitor” value worked out at 23% and the “% Inhibition Relative to Negative Control, 3A4” value is “None”.

For the molecule `CC(C)(O)c1csc(C(=O)c2c[nH]c3cc(F)ccc23)n1` [ARI-220, (6-fluoro-1H-indol-3-yl)(4-(2-hydroxypropan-2-yl)thiazol-2-yl)methanone], on CYP3A4, the “% Compound Metabolized at 30 min, CYP3A4 Inhibitor” value was determined as 27% and the “% Inhibition Relative to Negative Control, 3A4” value came to 34%.

Consider `N[C@@H](c1csc(C(=O)c2c[nH]c3ccccc23)n1)C(F)(F)F` [ARI-229], for which, on CYP3A4, the “% Compound Metabolized at 30 min, CYP3A4 Inhibitor” value turned out to be 0% and the “% Inhibition Relative to Negative Control, 3A4” value is listed as “None”.

As to `O=C(c1nc([C@H](O)C(F)(F)F)cs1)c1c[nH]c2cc(F)ccc12` [ARI-212], at CYP3A4, the “% Compound Metabolized at 30 min, CYP3A4 Inhibitor” value is given as 24% and the “% Inhibition Relative to Negative Control, 3A4” value is 44%.

Turning to `N[C@H](c1csc(C(=O)c2c[nH]c3ccccc23)n1)C(F)(F)F` [ARI-228], on CYP3A4, the “% Compound Metabolized at 30 min, CYP3A4 Inhibitor” value was determined as 75% and the “% Inhibition Relative to Negative Control, 3A4” value came out at 16%.

As to `N[C@@H](c1csc(C(=O)c2c[nH]c3cc(F)ccc23)n1)C(F)(F)F` [ARI-224], on CYP3A4, the “% Compound Metabolized at 30 min, CYP3A4 Inhibitor” value stood at 8% and the “% Inhibition Relative to Negative Control, 3A4” value stood at 11%. In data set [1] (SD, Day 5, Mean), this molecule gave an AUC(0-inf) of 8.24 ng·h/mL, an MRT inf at 5 days of 1.95 h and a half-life at 5 days of 1.28 h. Moreover, in data set [1] (SD, Day 5, individual animal), the AUC(0-inf) came out at 8.24 ng·h/mL, the MRT inf at 5 days was determined as 1.95 h and the half-life at 5 days was 1.28 h. Moreover, in data set [1] (setting [2]), the AUC(0-inf) was 2680 ng·h/mL, the Cmax at 1 day came to 792 ng/mL, the MRT inf at 1 day was 2.79 h and the MRT last at 1 day stood at 2.48 h. In addition, in data set [1] (setting [2]), the half-life at 1 day was 1.55 h, the AUC(0-t) amounted to 2600 ng·h/mL and the Tmax at 1 day is 1.33 h. For the same molecule, in data set [1] (setting [3]), the Cmax at 1 day worked out at 699 ng/mL, the MRT inf at 1 day turned out to be 3.23 h, the MRT last at 1 day was 2.66 h and the half-life at 1 day was 2.05 h. In addition, the Tmax at 1 day in data set [1] (setting [3]) stood at 1 h. In addition, in data set [1] (Sprague-Dawley, Day 5, Mean), the Cmax at 5 day worked out at 5.96 ng/mL, the MRT last at 5 day worked out at 4.56 h, the Tmax at 5 day amounted to 0.333 h and the AUC(0-t) was 11.4 ng·h/mL. The Tmax at 5 day in data set [1] (setting [4]) came to 0.5 h. In data set [1], the “behaviour of exposure after 5 days of repeat dosing (in words)” value was “increased elimination”. Also, in data set [1] (Day 1, individual animal), the AUCinf was 2140 ng·h/mL and 4070 ng·h/mL and 1840 ng·h/mL; the AUClast is 1990 ng·h/mL and 4030 ng·h/mL and 1770 ng·h/mL; the Cmax is 1090 ng/mL and 587 ng/mL; the MRTinf was 2.48 h and 2.66 h. For the same molecule, in data set [1] (Day 1, individual animal), the MRTlast was 2.42 h and 2.36 h; the T1/2 is 1.04 h and 1.57 h; the Tmax came to 2 h. In addition, in data set [1] (Day 5, individual animal), the AUClast is 11.9 ng·h/mL and 14.9 ng·h/mL and 7.28 ng·h/mL; the Cmax is 5.53 ng/mL and 8.36 ng/mL and 3.98 ng/mL; the MRTlast was 3.29 h and 8.95 h and 1.44 h; the Tmax turned out to be 0.25 h.

With `O=C(c1nc(C2(O)CC2)cs1)c1c[nH]c2cc(F)ccc12` [ARI-221, (6-fluoro-1H-indol-3-yl)(4-(1-hydroxycyclopropyl)thiazol-2-yl)methanone], at CYP3A4, the “% Compound Metabolized at 30 min, CYP3A4 Inhibitor” value turned out to be 82% and the “% Inhibition Relative to Negative Control, 3A4” value was 14%.

For the molecule `O=C(c1nc([C@@H](O)C(F)(F)F)cs1)c1c[nH]c2cc(F)ccc12` [ARI-211], on CYP3A4, the “% Compound Metabolized at 30 min, CYP3A4 Inhibitor” value was determined as 59% and the “% Inhibition Relative to Negative Control, 3A4” value was “None”.

Turning to `CC[C@@H](N)c1csc(C(=O)c2c[nH]c3cc(F)ccc23)n1` [ARI-187, (R)-(4-(1-aminopropyl)thiazol-2-yl)(6-fluoro-1H-indol-3-yl)methanone], on CYP3A4, the “% Compound Metabolized at 30 min, CYP3A4 Inhibitor” value stood at 3% and the “% Inhibition Relative to Negative Control, 3A4” value was 25%.

`N[C@H](c1csc(C(=O)c2c[nH]c3cc(F)ccc23)n1)C(F)(F)F` [ARI-223]: at CYP3A4, the “% Compound Metabolized at 30 min, CYP3A4 Inhibitor” value came to 42% and the “% Inhibition Relative to Negative Control, 3A4” value amounted to 47%.

As to `NC1(c2csc(C(=O)c3c[nH]c4cc(F)ccc34)n2)CC1` [ARI-225, (4-(1-aminocyclopropyl)thiazol-2-yl)(6-fluoro-1H-indol-3-yl)methanone], at CYP3A4, the “% Compound Metabolized at 30 min, CYP3A4 Inhibitor” value is recorded as 29% and the “% Inhibition Relative to Negative Control, 3A4” value was found to be 26%.

In the case of `CC[C@H](N)c1csc(C(=O)c2c[nH]c3ccc(F)cc23)n1` [ARI-218], on CYP3A4, the “% Compound Metabolized at 30 min, CYP3A4 Inhibitor” value came to 0% and the “% Inhibition Relative to Negative Control, 3A4” value is 100%.

The record behind these values is patent publication US11390621B2, “Chiral indole compounds and their use” (ARIAGEN, INC., priority 2019, dated 2022).
